Experimental findings from patent US5698529A, “Chemotherapeutic compositions” (Supratek Pharma, Inc., priority 1996, dated 1997) are described below.

One test has as its system SKVO3 cells. Briefly: cells. In kind it is cell-based. To be noted: Homo sapiens. An excerpt: (§1) The antineoplastic agent vinblastine is incorporated into the block copolymer mixture described in Example 3.
(§2) The antineoplastic agent mitomycin C is incorporated into the block copolymer mixture described in Example 3.
(§3) The antineoplastic agent methotrexate is incorporated into the block copolymer mixture described in Example 3.
(§4) The antineoplastic agent daunorubicin is incorporated into the block copolymer mixture described in Example 3.

The test system of the next test is SKVLB cells. Nature of the test: cells. The class given is cell-based. To be noted: Homo sapiens.
Description: as §1, §2, §3, §4

Setting [1] is: SKVO3, drug-sensitive, read-out: IC50.

One may read the IC50 as the concentration that inhibits the measured activity by half.

Converted amounts (≈) assume the structure as drawn. Read-outs that look alike come from different tables or passages of the source.

Regarding `CN(Cc1cnc2nc(N)nc(N)c2n1)c1ccc(C(=O)N[C@@H](CCC(=O)O)C(=O)O)cc1` [free methotrexate, methotrexate], the half-inhibitory concentration (IC50) with SKVO3 cells (setting [1]) amounted to 1.09 µg/mL (≈ 2.4 µM).
For the compound `CO[C@@]12[C@H](COC(N)=O)C3=C(C(=O)C(C)=C(N)C3=O)N1C[C@@H]1N[C@@H]12` [free mitomycin, mitomycin C], the concentration for half-maximal inhibition (IC50) in the test on SKVLB cells was determined as 1.12 µg/mL (≈ 3.35 µM); with SKVO3 cells it was 0.32 µg/mL (≈ 0.957 µM).
On to `CC[C@]1(O)C[C@@H]2CN(CCc3c([nH]c4ccccc34)[C@@](C(=O)OC)(c3cc4c(cc3OC)N(C)[C@H]3[C@@](O)(C(=O)OC)[C@H](OC(C)=O)[C@]5(CC)C=CCN6CC[C@]43[C@@H]65)C2)C1` [free vinblastine, vinblastine], for which the IC50 was 0.615 µg/mL (≈ 0.758 µM) in the test on SKVLB cells and 0.095 µg/mL (≈ 0.117 µM) in the test with SKVO3 cells (setting [1]).
